Test results taken from BindingDB's records for doi:10.1021/jm060742o (Rheinische Friedrich-Wilhelms-Universitat Bonn, 2006).

What was measured:
Assay in all cases: Cholinesterase Inhibition Assay
Acetylcholinesterase [1] = target: Acetylcholinesterase (Electrophorus electricus, UniProt O42275)
Method: (§1) The cholinesterase assays were performed using colorimetric method reported by Ellman. The absorbance changed at 412 nm and was monitored with spectrophotometer. The reaction rates were compared and the percent inhibition due to the presence of test compounds was calculated. Inhibition curve was obtained for each compound. The compound concentration producing 50% of enzyme inhibition (IC50) was determined.

Acetylcholinesterase [2] = target: Acetylcholinesterase (Tetronarce californica, UniProt P04058)
Method: as §1

Cholinesterase = Cholinesterase (Homo sapiens, UniProt P06276)
Method: as §1

Acetylcholinesterase [3] = target: Acetylcholinesterase (Homo sapiens, UniProt P22303); details: pH 7.3; 25 °C
Method: as §1

Chain of Acetylcholinesterase (Electrophorus electricus, UniProt O42275) (O42275 whole entry): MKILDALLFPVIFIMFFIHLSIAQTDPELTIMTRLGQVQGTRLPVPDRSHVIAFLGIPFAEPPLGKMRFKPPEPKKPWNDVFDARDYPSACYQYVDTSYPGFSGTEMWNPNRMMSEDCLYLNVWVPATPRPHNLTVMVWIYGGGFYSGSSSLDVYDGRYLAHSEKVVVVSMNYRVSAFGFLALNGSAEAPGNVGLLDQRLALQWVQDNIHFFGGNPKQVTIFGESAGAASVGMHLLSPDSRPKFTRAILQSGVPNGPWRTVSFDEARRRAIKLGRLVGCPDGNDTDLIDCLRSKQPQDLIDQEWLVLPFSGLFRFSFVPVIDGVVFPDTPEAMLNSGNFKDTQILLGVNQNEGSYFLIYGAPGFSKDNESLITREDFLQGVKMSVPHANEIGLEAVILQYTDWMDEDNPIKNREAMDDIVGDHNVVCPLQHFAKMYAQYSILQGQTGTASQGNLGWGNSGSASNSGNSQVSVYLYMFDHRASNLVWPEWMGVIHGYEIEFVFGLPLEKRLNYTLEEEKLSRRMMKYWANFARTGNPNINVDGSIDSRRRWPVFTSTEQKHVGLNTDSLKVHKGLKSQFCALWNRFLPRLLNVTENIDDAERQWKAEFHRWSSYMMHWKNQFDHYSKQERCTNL
Chain of Acetylcholinesterase (Homo sapiens, UniProt P22303) (P22303 whole entry): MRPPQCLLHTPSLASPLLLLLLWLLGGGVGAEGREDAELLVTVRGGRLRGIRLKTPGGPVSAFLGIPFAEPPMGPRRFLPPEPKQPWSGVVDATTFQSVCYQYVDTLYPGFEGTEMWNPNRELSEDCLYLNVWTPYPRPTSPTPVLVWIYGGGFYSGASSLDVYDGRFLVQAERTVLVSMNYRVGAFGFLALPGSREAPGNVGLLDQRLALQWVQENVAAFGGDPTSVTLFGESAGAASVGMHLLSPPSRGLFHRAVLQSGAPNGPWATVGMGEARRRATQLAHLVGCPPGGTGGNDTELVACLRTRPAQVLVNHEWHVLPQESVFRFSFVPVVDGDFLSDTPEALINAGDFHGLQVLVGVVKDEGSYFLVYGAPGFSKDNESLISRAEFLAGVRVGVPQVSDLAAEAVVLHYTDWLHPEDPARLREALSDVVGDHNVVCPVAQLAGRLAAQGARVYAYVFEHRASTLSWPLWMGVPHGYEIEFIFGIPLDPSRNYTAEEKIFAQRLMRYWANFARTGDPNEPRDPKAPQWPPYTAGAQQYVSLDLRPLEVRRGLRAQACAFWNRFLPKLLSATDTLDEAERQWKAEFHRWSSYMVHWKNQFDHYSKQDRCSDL
Chain of Cholinesterase (P06276 whole entry): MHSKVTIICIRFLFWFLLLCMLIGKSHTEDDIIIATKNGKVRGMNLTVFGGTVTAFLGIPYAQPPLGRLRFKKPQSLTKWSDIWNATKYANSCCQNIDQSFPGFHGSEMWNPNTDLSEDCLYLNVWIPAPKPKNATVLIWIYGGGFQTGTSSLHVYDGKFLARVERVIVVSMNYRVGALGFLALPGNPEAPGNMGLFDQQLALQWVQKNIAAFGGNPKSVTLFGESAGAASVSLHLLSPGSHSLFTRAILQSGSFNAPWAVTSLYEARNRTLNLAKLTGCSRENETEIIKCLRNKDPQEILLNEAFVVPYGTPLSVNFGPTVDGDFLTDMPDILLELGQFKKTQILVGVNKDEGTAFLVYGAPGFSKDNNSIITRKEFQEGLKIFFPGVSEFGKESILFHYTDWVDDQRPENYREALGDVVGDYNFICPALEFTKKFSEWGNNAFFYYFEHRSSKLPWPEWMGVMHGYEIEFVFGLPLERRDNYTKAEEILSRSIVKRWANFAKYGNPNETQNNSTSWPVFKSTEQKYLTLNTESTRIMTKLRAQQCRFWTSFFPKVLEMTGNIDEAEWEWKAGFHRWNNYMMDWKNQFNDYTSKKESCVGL
Chain of Acetylcholinesterase (Tetronarce californica, UniProt P04058) (P04058 whole entry): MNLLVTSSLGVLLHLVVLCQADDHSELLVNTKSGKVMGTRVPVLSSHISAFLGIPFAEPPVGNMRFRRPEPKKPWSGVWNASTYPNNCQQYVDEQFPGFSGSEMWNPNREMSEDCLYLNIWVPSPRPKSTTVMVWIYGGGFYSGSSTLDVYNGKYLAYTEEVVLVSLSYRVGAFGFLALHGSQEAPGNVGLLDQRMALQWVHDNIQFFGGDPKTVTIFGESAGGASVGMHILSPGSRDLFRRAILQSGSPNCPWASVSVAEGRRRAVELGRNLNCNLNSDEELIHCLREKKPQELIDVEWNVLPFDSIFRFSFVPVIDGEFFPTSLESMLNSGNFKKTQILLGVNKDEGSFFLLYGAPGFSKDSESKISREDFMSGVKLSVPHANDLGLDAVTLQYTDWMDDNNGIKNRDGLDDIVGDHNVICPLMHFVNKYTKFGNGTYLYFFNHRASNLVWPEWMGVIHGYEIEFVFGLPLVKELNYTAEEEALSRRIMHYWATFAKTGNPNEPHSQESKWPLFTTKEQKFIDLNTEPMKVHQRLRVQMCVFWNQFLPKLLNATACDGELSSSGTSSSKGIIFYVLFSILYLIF

Structure (SMILES)	Ki (Acetylcholinesterase [1]) [nM]	IC50 (Acetylcholinesterase [2]) [nM]	IC50 (Cholinesterase) [nM]	IC50 (Acetylcholinesterase [3]) [nM]	IC50 (Acetylcholinesterase [1]) [nM]
COc1cc(C(=O)NCCCCCCCC(=O)NNc2c3c(nc4ccccc24)CCCC3)cc(OC)c1OC [3,4,5-trimethoxy-N-[7-(N'-1,2,3,4-tetrahydroacridin-9-ylhydrazinecarbonyl)heptyl]benzamide]	3.23	–	–	–	–
COc1cc(C(=O)NCCCCCCCCC(=O)NNc2c3c(nc4ccccc24)CCCC3)cc(OC)c1OC [3,4,5-Trimethoxy-N-(9-oxo-9-(2-(1,2,3,4-tetrahydroacridin-9-yl)hydrazino)nonyl)-benzamide]	–	5.99	1.38	5.08	2.73
